Bridges are numbered along the chain shown (N, C = ends). Where no end group is shown, it is not given here.
Assays:
[1] = aggregation behavior in solution by Dynamic Light Scattering (DLS); type: physicochemical; settings: for measured hydrodynamic radius: IL-10 mimetic peptides in solution
[2] = test system: TGF-β1 receptor on A549 cells; test: ELISA on cells of the A549 line using anti-TGF-β1 antibody; type: binding, human
Procedure: The peptides described in this patent application were selected using the Phage Display (PD) methodology. The selection was performed by evaluating the ability of said peptides to recognize the TGF-β1 receptor on A549 cells, using an ELISA assay. MaxiSorp 96-well microtiter plates were coated with 1×10^6 cells diluted in PBS and incubated overnight at 4° C. Cells were blocked with 3% PBS-BSA for 1 h at 37° C., washed once with PBS and incubated with […] of each TGF-β1 mimetic peptide or 5 ng/ml of recombinant TGF-β1 for 1 h at 37° C. After washing, the plate was incubated for 1 h at 37° C. with anti-TGF-β1 antibody. The plate was washed and incubated with HRP-labeled anti-human IgG antibody for 1 h at 37° C. After washing, TMB substrate solution was added to the plate; the reaction was stopped by adding the 2N H2SO4 solution and read at 492 nm in a microplate reader.
To investigate whether the synthesized peptides could bind to cell receptors, an ELISA assay was performed on cells of the A549 line using commercial anti-TGF-β1 antibody.

[3] = test system: IFN signaling pathway; test: IFN signaling pathway in Jurkat-Dual reporter cells, SEAP production; type: cell-based; settings: after 12, 24 and 48 hours; results depend on concentration
Procedure: (§1) In order to investigate the ability of synthetic peptides with affinity to the Interleukin-10 receptor to interfere in the NFkB, IFN and TLR4 pathways, reporter cell lines were used. To analyze whether the isolated peptides (without activation molecules) could induce any type of activation, the isolated peptides were tested in cell lines during 12, 24 and 48 hours of treatment. […] As an example, FIG. 13A, FIG. 13B, and FIG. 13C show an analysis of NFkB expression after stimulation with the synthesized IL-10 receptor affinity synthetic peptides described herein. Cells were treated for 12, 24 and 48 hours with the synthesized peptides Pep 1-IL10, Pep 2-IL10, Pep 3-IL10 and Pep 4-IL10, at different concentrations, without activating molecules. Luciferase was then measured after 12 hours of treatment (FIG. 13A), 24 hours of treatment (FIG. 13B) and 48 hours of treatment (FIG. 13C). […] TNF-α (200 ng/mL) was used as a positive control.
The most significant results will be described below. […] When cells were pretreated with IFN, although peptides at some concentrations indicated results, they were not statistically sufficient. Therefore, we cannot confirm whether they were able to interfere with pathway activation (FIGS. 17 A, B and C) in an equal or better way than the negative control (rIL-10). In the assays shown by FIGS. 16 (A, B and C) and FIGS. 17 (A, B and C), analysis of IFN expression was performed in Jurkat-Dual reporter cells. In the assays shown by FIGS. 16 A, B and C, cells were treated for 1 hour with peptides with further addition of IFN-α (104 EU/ml). Secreted Embryonic Alkaline Phosphatase (SEAP) production was measured after 12 hours of treatment (FIG. 16A), 24 hours of treatment (FIG. 16 B) and 48 hours of treatment (FIG. 16 C). In the assays shown by FIGS. 17A, B and C, cells were treated for 1 hour with IFN-α (104 EU/ml) with further addition of the peptides. SEAP production was measured after (A) 12 hours of treatment (B), 24 hours of treatment and (C) 48 hours of treatment. IFN-α (104 EU/ml) was used as a positive control and rlL-10 (0.4 ng/ml) as a negative control. *P<0.05.

[4] = test system: NFkB pathway; test: NFkB expression in Jurkat-Dual reporter cells, luciferase (IL-10 mimetic peptides); type: cell-based; settings: without activating molecules; 12, 24 and 48 hours; different concentrations
Procedure: as §1
The assay was then carried out using TNF-α as activation molecule not only in the control, but after a pretreatment with the synthesized peptides Pep 1-IL10, Pep 2-IL10, Pep 3-IL10 and Pep 4-IL10, at different concentrations. All peptides were able to modulate NFKB activation after 12, 24 and 48 hours, with different results depending on the concentrations used. […] In the assays shown by FIGS. 14 A, B and C, analysis of NFkB expression was performed in Jurkat-Dual reporter cells. Cells were treated for 1 hour with peptides and TNF-α (200 ng/ml) added. Luciferase was measured after 12 hours of treatment (FIG. 14A), 24 hours of treatment (FIG. 14B) and 48 hours of treatment (FIG. 14C).
Another assay was then performed in which cells were pretreated with TNF-α and the synthesized peptides Pep 1-IL10, Pep 2-IL10, Pep 3-IL10 and Pep 4-IL10, at different concentrations, were added later. All peptides were able to modulate NFKB activation after 12, 24 and 48 hours, with different results depending on the concentrations used. The most significant results will be described below. […] After 48 hours of treatment, Pep 1-IL-10 at a concentration of 0.001 μM (P<0.05) was the one that obtained a result with the highest statistical significance in the decrease of NFKB signaling (FIG. 15C). In the assays shown by FIGS. 15 A, B and C, analysis of NFkB expression was performed in Jurkat-Dual reporter cells. Cells were treated for 1 hour with TNF-α (200 ng/ml) and peptides were added. Luciferase was measured after 12 hours of treatment (FIG. 15A), 24 hours of treatment (FIG. 15B) and 48 hours of treatment (FIG. 15C). TNF-α (200 ng/mL) was used as a positive control and rlL-10 (recombinant Interleukin-10) (0.4 ng/mL) as a negative control. *P<0.05; **P<0.005; ***P<0.0005.

[5] = test system: TFGβRII/SMAD-dependent pathway; test: HEK-blue-TGFβ reporter cells, SEAP production; type: cell-based; settings: tested at 0.1, 1, 10 and 100 μM; for concentrations with statistically significant activation of the SMAD-dependent pathway (SEAP): 12 hours
Procedure: After 12 hours of stimulation (FIG. 4A), all peptides were able to bind to the receptor.
The assay was performed in such a way that approximately 2.5×10^4 cells/well (100 μL) were treated with 100 μL of all synthetic peptides at different concentrations (100 μM, 10 μM, 1 μM and 0.1 μM) while rTGF-β1 ([…]) at 100 ng/ml was used as a positive control. After incubating the cells for 12, 24 and 48 hours at 37° C. in 5% CO2, […] of supernatant was transferred to a Greiner plate to which […] of Quanti-blue solution was added. The plate was incubated for 1 hour at 37° C. in 5% CO2 and the production of SEAP (secreted alkaline phosphatase) was detected at 655 nm. All tests were performed in triplicate.

[6] = test system: TLR4 pathway; test: HEK-Blue hTLR4 reporter cells, SEAP production (TGF-β1 mimetic peptides); type: cell-based; settings: peptide pretreatment 1 hour, then LPS 100 ng/mL; 12 hours
Procedure: Similar to the treatment using Jurkat cells, peptides in compositions with different concentrations were also tested in HEK cells to investigate their ability to interfere with the TLR4 pathway.
To ensure that the peptides could not induce any activation when tested alone (no pathway activation molecule) only the peptides were added into the cell line and SEAP production was measured after 12 hours of treatment (Figure not shown).
The assay was performed using HEK-Blue hTLR4 reporter cells (InvivoGen) to investigate the action of peptides in the TLR4 pathway. A total of 2.3×10^4 cells/well ([…]) was pretreated with […] of composition comprising at least one of the synthetic peptides at concentrations of 100 μM, 10 μM, 1 μM, and 0.1 μM for 1 hour at 37° C. ° C. in 5% CO2 followed by LPS stimulation at 100 ng/mL for 12 hours. The same stimuli were applied to cells pretreated with LPS at 100 ng/ml for 1 hour at 37° C. in 5% CO2, followed by stimuli with peptides at 100 μM, 10 μM, 1 μM and 0.1 μM for 12 hours. Stimuli were added in Quanti-blue medium and SEAP production was measured at 655 nm. As a control, peptides at the same concentrations were tested alone to investigate whether they could activate the TLR4 pathway and LPS was used as a positive control.

[7] = test system: NFkB pathway; test: NFkB expression in Jurkat cells, luciferase (TGF-β1 mimetic peptides); type: cell-based, human; settings: for concentrations with statistically significant decrease of NFKB pathway activation vs TNF-α control: peptide pretreatment 1 hour, then TNF-α, tested at 0.1-100 μM
Procedure: Two different cell treatments were performed using Jurkat cells to analyze NFkB expression after 12, 24 and 48 hours. In the first test, Jurkat cells were treated only with peptides (no pathway activating molecule) at different concentrations to analyze the ability of each peptide to induce NFkB expression (Figure not shown). None of the tested concentrations induced any type of pathway activation.
The assay was carried out in such a way that a total of 3×10^5 cells/well ([…]) was pretreated with […] of a composition comprising one of the synthetic peptides in concentrations of 100 μM, 10 μM, 1 μM, and 0.1 μM for 1 hour at 37° C. in 5% CO2, followed by stimulation with TNF-α (200 ng/ml) for 12, 24 and 48 hours. The same stimuli were applied to cells pretreated with TNF-α (200 ng/ml) for 1 hour at 37° C. in 5% CO2 followed by stimulation with peptides at 100 μM, 10 μM, 1 μM and 0.1 μM for 12, 24 and 48 hours. Then, […] of supernatant was transferred to a white plate and Quanti-Luc reagent was used to measure the luciferase product. As a control, the peptides were tested at the same concentrations, without any pathway activating molecule, to investigate whether they could activate the NFkB pathway. TNF-α (200 ng/mL) was used as a positive control and rIL-10 (0.4 ng/mL) as a negative control. […].

Substance: Pep 1-TGF-β1: synthetic peptide with affinity to the TGF-β receptor, SEQ ID N 01, with disulfide bridges (HACFLPASGLCGGGS; disulfide 3-11)
- hydrodynamic radius ([1]; TGF-β1 mimetic peptides in solution): 0.58 nm
- recognition of receptor-bound peptide by anti-TGF-β1 antibody compared to recombinant TGF-β1 [2]: in the same way that the antibody recognized the TGF-β1 recombinant molecule

Substance: Pep 3-TGF-β1: synthetic peptide with affinity to the TGF-β receptor, SEQ ID N 03, free of disulfide bridges (HASESPLKRQSGGGS)
- recognition of receptor-bound peptide by anti-TGF-β1 antibody compared to recombinant TGF-β1 [2]: in the same way that the antibody recognized the TGF-β1 recombinant molecule

Substance: Pep 4-TGF-β1: synthetic peptide with affinity to the TGF-β receptor, SEQ ID N 04, with disulfide bridges (HACKLQRSEPCGGGS; disulfide 3-11 (inferred))
- recognition of receptor-bound peptide by anti-TGF-β1 antibody compared to recombinant TGF-β1 [2]: recognized as statistically different

Substance: Pep 3-IL-10: synthetic peptide with affinity to the Interleukin-10 receptor, SEQ ID NO: 11 (HCFDTQRMEFRMPPGG)
- modulation of the activation of the IFN signaling pathway [3]: able to modulate the activation of the IFN signaling pathway
- induction of NFkB expression by peptides alone [4]: not able to induce any response
- measured hydrodynamic radius [1]: 0.79 nm

Substance: Pep 6-TGF-β1: synthetic peptide with affinity to the TGF-β receptor, SEQ ID N 06, free of disulfide bridges (HASKLQRSEPSGGGS)
- concentrations with statistically significant activation of the SMAD-dependent pathway (SEAP) [5]: 0.1 μM, 10 μM and 100 μM
- concentrations with significant maintained activation of the SMAD-dependent pathway (SEAP) ([5]; 24 hours): 100 µM
- concentrations with significant maintained activation of the SMAD-dependent pathway (SEAP) ([5]; 48 hours): 0.1 µM and 1 µM
- concentrations with statistically significant reduction of TLR4 pathway activation [6]: 1 µM
- recognition of receptor-bound peptide by anti-TGF-β1 antibody compared to recombinant TGF-β1 [2]: recognized as statistically different
- concentrations with statistically significant decrease of NFKB pathway activation vs TNF-α control ([7]; 24 hours): 0.1 µM

Substance: Pep 8-TGF-β1: synthetic peptide with affinity to the TGF-β receptor, SEQ ID N 08, free of disulfide bridges (HASTLPSNTHSGGGS)
- concentrations with statistically significant activation of the SMAD-dependent pathway (SEAP) [5]: 1 µM
- concentrations with significant maintained activation of the SMAD-dependent pathway (SEAP) ([5]; 24 hours): 1 µM
- concentrations with significant maintained activation of the SMAD-dependent pathway (SEAP) ([5]; 48 hours): 0.1 μM, 1 μM and 10 μM
- recognition of receptor-bound peptide by anti-TGF-β1 antibody compared to recombinant TGF-β1 [2]: recognized as statistically different
- concentration with statistically significant reduction of the NFKB pathway ([7]; cells pretreated with TNF-α, then peptide, 24 hours): 0.1 µM

Substance: Pep 4-IL-10: synthetic peptide with affinity to the Interleukin-10 receptor, SEQ ID NO: 12 (HCMTGSRATFPSAPGG)
- modulation of the activation of the IFN signaling pathway [3]: able to modulate the activation of the IFN signaling pathway
- induction of NFkB expression by peptides alone [4]: not able to induce any response
- measured hydrodynamic radius [1]: 0.86 nm

Substance: Pep 5-TGF-β1: synthetic peptide with affinity to the TGF-β receptor, SEQ ID N 05, free of disulfide bridges (HASFLPASGLSGGGS)
- concentrations with statistically significant activation of the SMAD-dependent pathway (SEAP) [5]: 0.1 μM, 1 μM, 10 μM and 100 μM
- concentrations with statistically significant reduction of TLR4 pathway activation [6]: 1 µM and 10 µM
- recognition of receptor-bound peptide by anti-TGF-β1 antibody compared to recombinant TGF-β1 [2]: recognized as statistically different
- concentrations with statistically significant decrease of NFKB pathway activation vs TNF-α control ([7]; 24 hours): 0.1 μM; 1 μM and 100 μM
- concentrations with statistically significant decrease of NFKB pathway activation vs TNF-α control ([7]; 48 hours): 0.1 μM; 1 μM and 10 μM

— US20220193185A1, “COMBINATION OF SYNTHETIC PEPTIDES WITH AFFINITY TO THE TGF-ß RECEPTOR AND WITH AFFINITY TO THE IL-10 RECEPTOR, PHARMACEUTICAL COMPOSITION AND THEIR USE AS IMMUNOMODULATORS IN THE TREATMENT OF AUTOIMMUNE, INFLAMMATORY OR ALLERGIC DISEASES” (Universidade Federal de Uberlândia, priority 2019, published 2022)
